Measurements as given in patent publication US10646575B2, “Heterocyclic degronimers for target protein degradation” (C4 Therapeutics, Inc., priority 2016, dated 2020).

Target: CRBN-DDB1 (Homo sapiens (Human), UniProt Q96SW2)
Assay: CRBN-DDB1 fluorescence polarization (FP) binding assay
Conditions: displacement of (−)-Thalidomide-Alexa Fluor or Pomalidomide-fluorescein probe; 400 nM CRBN-DDB1, 5 nM probe, 60 min, room temperature
Protocol: Measuring compound ligand binding to CRBN-DDB1 was carried out using an established sensitive and quantitative in vitro fluorescence polarization (FP) based binding assay. […] Compounds were dispensed from serially diluted DMSO stock into black 384-well compatible fluorescence polarization plates using an Echo acoustic dispenser. Compound binding to CRBN-DDB1 was measured by displacement of either a (−)-Thalidomide-Alexa Fluor® or Pomalidomide-fluorescein conjugated probe dye. […] Matching control wells excluding CRBN-DDB1 were used to correct for background fluorescence. Plates were read on an Envision plate reader with appropriate FP filter sets. The corrected S (perpendicular) and P (parallel) values were used to calculate fluorescence polarization (FP) with the following equation: FP=1000*(S−G*P)/(S+G*P).

Sequence of CRBN-DDB1 (Q96SW2 whole entry): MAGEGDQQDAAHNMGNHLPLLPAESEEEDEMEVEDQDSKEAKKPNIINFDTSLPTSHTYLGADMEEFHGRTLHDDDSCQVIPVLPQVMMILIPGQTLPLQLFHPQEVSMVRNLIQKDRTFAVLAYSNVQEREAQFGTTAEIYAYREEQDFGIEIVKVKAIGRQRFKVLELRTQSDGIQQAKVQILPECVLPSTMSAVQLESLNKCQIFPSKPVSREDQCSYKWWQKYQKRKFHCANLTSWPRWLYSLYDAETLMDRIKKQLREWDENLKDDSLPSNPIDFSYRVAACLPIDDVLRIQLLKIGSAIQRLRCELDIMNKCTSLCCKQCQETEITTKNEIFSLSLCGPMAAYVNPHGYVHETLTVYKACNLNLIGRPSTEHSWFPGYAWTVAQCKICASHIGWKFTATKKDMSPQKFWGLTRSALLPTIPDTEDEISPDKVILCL
Sequence of CRBN-DDB1 (Q16531 whole entry partner): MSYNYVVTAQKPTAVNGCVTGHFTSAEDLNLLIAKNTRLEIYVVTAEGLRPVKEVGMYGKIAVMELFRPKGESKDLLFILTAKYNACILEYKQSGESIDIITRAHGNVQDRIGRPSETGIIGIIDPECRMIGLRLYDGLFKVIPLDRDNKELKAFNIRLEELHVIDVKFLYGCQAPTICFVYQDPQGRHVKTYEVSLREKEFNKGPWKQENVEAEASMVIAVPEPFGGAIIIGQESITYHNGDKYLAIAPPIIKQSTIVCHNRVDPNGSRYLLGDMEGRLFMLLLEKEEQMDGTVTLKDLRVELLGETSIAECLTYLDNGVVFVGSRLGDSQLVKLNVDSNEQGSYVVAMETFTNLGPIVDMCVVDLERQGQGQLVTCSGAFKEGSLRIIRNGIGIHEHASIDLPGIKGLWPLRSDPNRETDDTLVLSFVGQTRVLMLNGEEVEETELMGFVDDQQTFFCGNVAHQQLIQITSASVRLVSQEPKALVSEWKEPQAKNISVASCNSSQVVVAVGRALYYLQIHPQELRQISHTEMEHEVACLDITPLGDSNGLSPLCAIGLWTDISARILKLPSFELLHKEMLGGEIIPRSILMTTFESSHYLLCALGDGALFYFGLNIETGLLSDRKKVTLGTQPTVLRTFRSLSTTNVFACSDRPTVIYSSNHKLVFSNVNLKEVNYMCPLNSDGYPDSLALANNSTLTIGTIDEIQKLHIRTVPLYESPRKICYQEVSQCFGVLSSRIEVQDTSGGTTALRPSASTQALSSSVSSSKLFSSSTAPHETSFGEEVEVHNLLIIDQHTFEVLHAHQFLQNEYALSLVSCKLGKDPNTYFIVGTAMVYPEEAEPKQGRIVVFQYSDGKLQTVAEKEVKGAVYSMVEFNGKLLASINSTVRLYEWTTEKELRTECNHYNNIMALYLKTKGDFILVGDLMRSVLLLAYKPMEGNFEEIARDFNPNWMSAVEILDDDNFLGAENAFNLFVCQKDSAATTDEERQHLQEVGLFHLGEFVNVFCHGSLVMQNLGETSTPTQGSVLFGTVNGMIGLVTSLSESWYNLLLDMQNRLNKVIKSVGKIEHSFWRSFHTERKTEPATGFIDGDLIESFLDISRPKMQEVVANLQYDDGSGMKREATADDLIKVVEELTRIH

Kd: 1 to 1000 µM
SMILES: O=C1NC(=O)C2(CC2)CC1N1C(=O)c2ccccc2C1=O (stereo not shown) [Compound 3, 2-(4,6-dioxo-5-azaspiro[2.5]octan-7-yl)isoindoline-1,3-dione]
